For assay [1], the system named is paCaMKII binding to GST-2BC. As to the kind of experiment: Blue light-induced paCaMKII pulldown to immobilized GST-2BC. The following applies: Dark, 100 µM ADP. An excerpt:
Extended Data Fig. 1 paCaMKII photoactivation-induced sLTP requires GluN2B binding. Data are presented as mean values +/− SEM. a, Representative images of GFP-paCaMKII WT and mCherry-2BC expressed in cultured hippocampal neurons before and after blue light stimulation. Time course of correlation indices of GFP-paCaMKII and mCh-2BC after photoactivation. Images were acquired in a single plane ever 10 s (n = 4 cells). Scale bar indicates 10 µm. b, Schematic of blue light-induced paCaMKII pulldown to immobilized GST-2BC. c, Binding of […] to immobilized GST-2BC was induced by blue light in the presence of either 100 ADP µM alone or without nucleotide. (n = 4 independent samples; *p < 0.05; one-way Kruskal Wallis with Dunn’s comparison test). Dark:Light+ADP p = 0.0132; Dark:Light-ADP p = 0.1860; Light+ADP:Light-ADP p = 0.9779. d, Schematic of how K42M and I205K CaMKII mutations affect enzymatic activity and the induction of GluN2B binding. e, Representative images of dissociated mouse WT and GluN2B^ΔCaMKII hippocampal cultures expressing GFP-paCaMKII WT and mCherry cell fill before and after photoactivation. Scale bar indicates 5 µm. n = 9, 9 cells; See Fig. 1f, g (right) for quantification. Source data

For assay [2], the target named is purified CaMKIIα binding to GST–GluN2B-c WT (Homo sapiens, UniProt Q9UQM7). As to the kind of experiment: CaMKII binding to immobilized GST–GluN2B-c in vitro. The following applies: Ca2+/CaM, 4 mM ADP. As for the experimental part: CaMKII–GluN2B binding assays were done as described[9],[13],[25]. Briefly, GST–GluN2B-c tail (GST–2BC) was immobilized on anti-GST antibody-coated microtiter plates (Thermo Scientific), blocked for 30 min with 5% BSA and then overlaid with […] CaMKII (subunit concentration) in PIPES-buffered saline (pH 7.2) containing 2 mM Ca^2+, 1 μM CaM, 1 mM Mg^2+, 0.1% BSA and 0.1% Tween-20 for 20 min at room temperature. […] After extensive washes in buffer containing 1 mM EGTA, GST–2BC and bound CaMKII were eluted for 10 min in SDS loading buffer at 95 °C. Bound CaMKII was measured via immunoblot.

Molecules are shown by their SMILES. “And” between values parts separate entries of the source, which are not always exact repeats. Equal entries are not always repeated.

For the compound `Nc1ncnc2c1ncn2[C@@H]1O[C@H](COP(=O)(O)OP(=O)(O)O)[C@@H](O)[C@H]1O` [ADP], in assay [1], the “binding to immobilized GST-2BC (immunoblot)” value is 54.536 and 63.536 and 53.536. The “bound CaMKIIα (immunoblot, relative)” value in assay [2] was 2.712 and 2.4126 and 1.817.

For the origin of these results see PMC10482691, “LTP induction by structural rather than enzymatic functions of CaMKII” (Nature, 2023).
